Source: patent publication US20130072472A1, “N[…] ANSOLVATES” (DemeRx, Inc., priority 2011, published 2013)
Where a name gives a salt, the structure may show the parent alone.

Assays:
Assay type in all cases: physicochemical
[1] = Thermogravimetric analysis (TGA); settings: for TGA sharp weight loss / onset of probable decomposition: TGA thermogram
Protocol: Thermogravimetric analyses were performed using a TA Instruments Q5000 IR thermogravimetric analyzer. Temperature calibration was performed using nickel and Alumel™ Each sample was placed in an aluminum pan. The sample was hermetically sealed, the lid pierced, then inserted into the TO furnace. The furnace was heated under nitrogen.

[2] = Drying of solvated forms, gravimetric weight loss and XRPD; settings: for gravimetric weight loss: hydrochloride
Protocol: Two other moisture absorbing, unstable, polymorphs of noribogaine hydrochloride, Forms F and G, which had mutually similar XRPD patterns were also identified. Form G was isolated from a slurry of Form A in MeOH at ambient temperature. Material G likely contains MeOH and water, and Form F (or Form II) is likely hydrated. […] A sharp weight loss at ˜312° C. indicated likely decomposition. Both Forms G and F are contemplated to readily pick up moisture from the atmosphere.

[3] = Polymorphic conversion of solvated form on stirring in EtOH/water or heating
Source text: Such a desolvation is surprising, given that it occurs upon stirring in another solvent, which comprises hydroxy groups and alkyl moieties as in MeOH. As described above, form F is a solvated polymorph that is obtained from MeOH.

[4] = Approximate aqueous solubility of noribogaine salt forms; settings: water
[5] = Approximate ambient-temperature solubility, solvent addition method; settings: thermodynamic from solid
Protocol: The approximate ambient-temperature solubilities of noribogaine hydrochloride Form A were measured in a variety of solvents and solvent mixtures using the solvent addition method (Table 2).
The solubility of noribogaine hydrochloride ansolvate were determined as tabulated below.

[6] = Dynamic vapor sorption (DVS); settings: for State of the solids after DVS sorption/desorption: post-DVS, 5 to 95 to 5% RH
Protocol: Dynamic vapor sorption (DVS) data were collected on a VTI SOA-100 Vapor Sorption Analyzer. NaCl and PVP were used as calibration standards. Samples were not dried prior to analysis. Sorption and desorption data were collected over a range from 5 to 95% RH at 10% RH increments under a nitrogen purge. The equilibrium criterion used for analysis was less than 0.0100% weight change in 5 minutes with a maximum equilibration time of 3 hours. Data were not corrected for the initial moisture content of the samples.

CC[C@H]1CC2C[C@H]3c4[nH]c5ccc(O)cc5c4CCN(C2)C13 [Form F, noribogaine hydrochloride]
TGA sharp weight loss / onset of probable decomposition ([1]; hydrochloride): ~312 °C | gravimetric weight loss [2]: 4.1% | Polymorphic form change upon heating ([3]; heating): converts to the ansolvate form A | Polymorphic form change upon stirring ([3]; stirring in 9:1 ethyl alcohol and water): converted to the ansolvate form A

CC[C@H]1CC2C[C@H]3c4[nH]c5ccc(O)cc5c4CCN(C2)C13 [Form G, noribogaine hydrochloride]
Polymorphic form after weight loss, by XRPD [2]: converted to Form A | gravimetric weight loss ([2]; listed as material G): 7.95%

CC[C@H]1CC2C[C@H]3c4[nH]c5ccc(O)cc5c4CCN(C2)C13 [HCl, Form A, noribogaine hydrochloride]
Approx. Aqueous Solubility ([4]; hydrochloride): 1 to 4 mg/mL | solubility ([5]; aqueous with cosolvent or surfactant or cyclodextrin, ACN:water 80:20, ambient temperature): 9000 µg/mL | solubility ([5]; aqueous with cosolvent or surfactant or cyclodextrin, Acetone:water 50:50, ambient temperature): 11000 µg/mL | solubility ([5]; aqueous with cosolvent or surfactant or cyclodextrin, TFE:water 50:50, ambient temperature): 10000 µg/mL | solubility ([5]; organic solvent or mixture, Acetone, ambient temperature): < 1000 µg/mL | solubility ([5]; organic solvent or mixture, CAN, ambient temperature): < 1000 µg/mL | solubility ([5]; organic solvent or mixture, EtOAc, ambient temperature): < 1000 µg/mL | solubility ([5]; organic solvent or mixture, EtOH, ambient temperature): < 1000 µg/mL | solubility ([5]; organic solvent or mixture, HFIPA, ambient temperature): 10000 µg/mL | solubility ([5]; organic solvent or mixture, MeOH, ambient temperature): 2000 µg/mL | solubility ([5]; organic solvent or mixture, MeOH:THF 50:50, ambient temperature): 1000 µg/mL | solubility ([5]; organic solvent or mixture, TFE, ambient temperature): 4000 µg/mL | solubility ([5]; organic solvent or mixture, THF, ambient temperature): < 1000 µg/mL | solubility ([5]; organic solvent or mixture, chloroform, ambient temperature): < 1000 µg/mL | solubility ([5]; organic solvent or mixture, chloroform:EtOH 50:50, ambient temperature): < 1000 µg/mL | solubility ([5]; organic solvent or mixture, p-dioxane, ambient temperature): < 1000 µg/mL | solubility ([5]; Water, added all at once, stirred ~24 hours): < 4000 µg/mL | DVS weight gain/loss ([6]; between 5 and 95% relative humidity): approximately 0.03% | TGA sharp weight loss / onset of probable decomposition ([1]; listed as Form A, hydrochloride): ~316 °C | TGA weight loss ([1]; prior to ~316° C.): negligible weight loss

CC[C@H]1CC2C[C@H]3c4[nH]c5ccc(O)cc5c4CCN(C2)C13 [Phosphate, Form C, noribogaine phosphate]
Approx. Aqueous Solubility [4]: 23 mg/mL | DVS weight gain ([6]; between 5 and 95% RH): approximately 3.3 wt % | DVS weight loss upon equilibration ([6]; equilibration to 5% RH): approximately 1 wt % | State of the solids after DVS sorption/desorption [6]: remained Form C | TGA sharp weight loss / onset of probable decomposition [1]: 241 °C | TGA weight loss ([1]; from 30 to 140° C.): approximately 1.6%

CC[C@H]1CC2C[C@H]3c4[nH]c5ccc(O)cc5c4CCN(C2)C13 [Sulfate, Form D, noribogaine sulfate ansolvate]
Approx. Aqueous Solubility [4]: >80 mg/mL | DVS weight gain ([6]; between 75 and 95% RH): approximately 26 wt % | State of the solids after DVS sorption/desorption ([6]; listed as sulfate salt): deliquesced | DVS weight gain ([6]; up to 75% RH): about 0.7 wt % | TGA sharp weight loss / onset of probable decomposition [1]: approximately 274 °C | TGA weight loss ([1]; from approximately 160 to 245° C.): 4.9 wt %

CC[C@H]1CC2C[C@H]3c4[nH]c5ccc(O)cc5c4CCN(C2)C13 [Tosylate, Form B, tosylate salt of noribogaine]
Approx. Aqueous Solubility [4]: 3 mg/mL
